Structures are written as SMILES.

Data set [1] relates to blood-dot area in right ear. In words: re-absorption of citrated blood injected in the rabbit ear (blood-dot area). The data set is classed as in vivo, New Zealand rabbits. As to conditions: oral, placebo 20.3. As for the experimental part: Finally, the compounds of the invention are able to induce re-absorption of the total citrated blood when blood is injected in the right ear of New Zealand rabbits. 12 hours after blood inoculation into ear, the animal were randomized and treated with scalar doses of the investigated compounds administered for 4 days by oral route. The blood-dot areas are evaluated and compared with the areas of the control animals treated with placebo only. In table 5 are reported some experimental results.

In data set [2] the test system is mouse peritoneal macrophages. In words: proteolysis by mouse peritoneal macrophages. As to conditions: 50 mg/kg i.p. in sesame oil, 10 replication; coumarin = 1.
Excerpt: Ability of the 6-fluoro coumarin itself, and the other compounds of the invention, to increase proteolysis by mouse peritoneal macrophages is shown by using the testing procedure reported by T. Bolton and J. R. Casley-Smith, Experimentia, 31, 275 (1975).
Due to the great standard error, many replications are necessary in order to obtain reliable dose-response curves.
The test system of data set [3] is carrageenan induced edema of the rats hind paw. In words: carrageenan induced edema of the rat hind paw. Format: in vivo. As to conditions: for activity relative to coumarin: "at least 1.5-2.5 times more active than coumarin"; for reduction of carrageenan induced edema: at all the times (1; 3; 4 and 5 h). An excerpt:
6-fluoro coumarin and the compounds of the invention are also effective in the management of the acute inflammation.
The carrageenan edema test proposed by Winter C. A., Risley A., Noss G. W. (Proc. Soc. Exp. Biol., 101, 544, 1962) was used.
The compounds, administered i.p. 30' before the carrageenan as suspension in 1% aqueous carboxymethylcellulose homogeneized by ultrasounds, were compared with coumarin at different dose-levels on 6 animal groups. The percent reduction of the rat hind paw edema was evaluated at different times.
On the technique in general: The carrageenan paw model is a standard test of acute inflammation.

Data set [4] deals with burning induced oedema of hind paws. In words: burning induced oedema test. Format: in vivo, Sprague-Dawley male rats. The following applies: burning induced oedema. On the procedure: Reduction of the burning induced oedema test has been also used to evidentiate the antiinflammatory activity and the proteolytic mechanism of action of the compounds of the invention. 18 hours-fasted Sprague-Dawley male rats, body weight: 170-220 g, are used in this testing procedure. The animals are divided into five animal groups and the volume (in ml) of the posterior hind paws is measured before these paws are burnt by immersion for 22 seconds in 55° C. heated water. 15 minutes after burning, the animals are treated, by oral route, with different dosages of the investigated compounds and placebo. The volume of paws is measured 6, 12 and 18 hours after burning and the increased volume of the paws is evaluated.

Data set [5] has as its system coagulation factors. In words: coagulation parameters (DPTT, Hepato quick, clotting time). The data set is classed as in vivo. The following applies: oral, 2 consecutive days, equimolecular doses.
Data set [6] deals with coagulation. The following applies: Schofield; Feuer et al.; cited from earlier work.

In the case of `O=c1oc2ccc(F)cc2cc1Br` [3-Br--6-fluoro, 6-fluoro-3-bromo-2H-1-benzopyran-2-one], the “% reduction of blood-dot area after 4 days” value (“% reduction of blood-dot area” for short) in data set [1] (50 mg/kg pro die) is reported as 69%. The “Potency ratio in the proteolytic test” value in data set [2] is reported as 1.75. Moreover, in data set [3], the “activity relative to coumarin” value is 1.5-2.5 times and the “reduction of carrageenan induced edema” value was “reduce carrageenan induced edema of the rats hind paw at all the times”. The “activity relative to 6-fluoro coumarin (equiactive)” value in data set [4] is reported as 0.85-1.5 times.
As for `O=c1oc2ccc(F)cc2cc1Cl` [3-Cl--6-fluoro, 6-fluoro-3-chloro-2H-1-benzopyran-2-one], in data set [2], the “Potency ratio in the proteolytic test” value came to 1.4.
Consider `Cc1cc(=O)oc2ccc(F)cc12` [4-methyl-6-F, 6-fluoro-4-methyl-2H-1-benzopyran-2-one], for which, in data set [1] (50 mg/kg pro die), the “% reduction of blood-dot area” value came out at 65%. Further, the “Potency ratio in the proteolytic test” value in data set [2] came to 1.78. In addition, in data set [3], the “activity relative to coumarin” value was 1.5-2.5 times and the “reduction of carrageenan induced edema” value was “reduce carrageenan induced edema of the rats hind paw at all the times”. Moreover, the “activity relative to 6-fluoro coumarin (equiactive)” value in data set [4] is recorded as 0.85-1.5 times.
With `O=c1ccc2cc(F)cc(F)c2o1` [6,8-difluoro, 6,8-difluoro-2H-1-benzopyran-2-one], the “Potency ratio in the proteolytic test” value in data set [2] is on record as 1.45.
With `CC(C)OC1C=Cc2cc(F)ccc2O1` (stereo not drawn) [6-fluoro-2.xi.-isopropoxy-2H-1-benzopyrane], in data set [2], the “Potency ratio in the proteolytic test” value was found to be 1.61. Also, in data set [3], the “activity relative to coumarin” value is recorded as 1.5-2.5 times and the “reduction of carrageenan induced edema” value is “reduce carrageenan induced edema of the rats hind paw at all the times”. Also, the “activity relative to 6-fluoro coumarin (equiactive)” value in data set [4] is recorded as 0.85-1.5 times.
As to `COC1C=Cc2cc(F)ccc2O1` (stereo not drawn) [6-fluoro-2.xi.-methoxy-2H-1-benzopyrane], the “% Reduction of the edema by carrageenan” value worked out at 58% in data set [3] (0.76 mg/kg i.p., 3 h); 70% in data set [3] (1.55 mg/kg i.p., 3 h); 79% in data set [3] (3.12 mg/kg i.p., 3 h); 87% in data set [3] (3.12 mg/kg i.p., 5 h); 84% in data set [3] (6.25 mg/kg i.p., 3 h). Besides, in data set [3], the “activity relative to coumarin” value was 1.5-2.5 times. Moreover, the “reduction of carrageenan induced edema” value in data set [3] is listed as “reduce carrageenan induced edema of the rats hind paw at all the times”. Moreover, the “activity relative to 6-fluoro coumarin (equiactive)” value in data set [4] is recorded as 0.85-1.5 times.
As for `OC1C=Cc2cc(F)ccc2O1` (stereo not drawn) [6-fluoro-2H--1-benzopyran-2.zeta.-ol, 6-fluoro-2H-1-benzopyran-2.xi.-ol], in data set [1] (40 mg/kg pro die), the “% reduction of blood-dot area” value came out at 59%. Moreover, the “Potency ratio in the proteolytic test” value in data set [2] is 1.45. Besides, in data set [3], the “activity relative to coumarin” value is on record as 1.5-2.5 times and the “reduction of carrageenan induced edema” value is given as “reduce carrageenan induced edema of the rats hind paw at all the times”.
Take `OC1Oc2ccc(F)cc2C=C1Br` (stereo not drawn) [6-fluoro-3-bromo-2.xi.-hydroxy-2H-1-benzopyrane]: the “% Reduction of the edema by carrageenan” value in data set [3] (0.76 mg/kg i.p., 3 h) was found to be 65%; in data set [3] (1.55 mg/kg i.p., 3 h) it was 72%; in data set [3] (3.12 mg/kg i.p., 3 h), 88%; in data set [3] (3.12 mg/kg i.p., 5 h), 84%; in data set [3] (6.25 mg/kg i.p., 3 h), 87%.
Take `COC1Oc2ccc(F)cc2C=C1Br` (stereo not drawn) [6-fluoro-3-bromo-2.xi.-methoxy-2H-1-benzopyrane]: in data set [3], the “activity relative to coumarin” value was 1.5-2.5 times and the “reduction of carrageenan induced edema” value is given as “reduce carrageenan induced edema of the rats hind paw at all the times”. Also, the “activity relative to 6-fluoro coumarin (equiactive)” value in data set [4] is given as 0.85-1.5 times.
On to `O=c1oc2ccccc2c(O)c1Cc1c(O)c2ccccc2oc1=O` [dicoumarol, reference compound], for which, in data set [5], the “effect on DPTT” value is “very strong effect” and the “effect on Hepato quick” value is recorded as “very strong effect”. The anticoagulant activity result in data set [6] is reported as “anticoagulant activites”.

Source of the values: US4749798A, “Fluoro coumarins as antilymphoedema agents” (priority 1984, dated 1988).
